Data: US20240158446A1, “CYCLIC COMPOUND HAVING SELECTIVE INHIBITORY ACTION ON KRAS OVER HRAS AND NRAS” (CHUGAI SEIYAKU KABUSHIKI KAISHA, priority 2021, published 2024)
Where a SMILES comes first, the peptide text is derived from it. Bridges are numbered along the chain shown (N, C = ends). [ ]: non-standard residue; d: D form. The star is where a group is joined. hPhe(3-Cl-4-CF3) = N[C@@H](CCc1ccc(C(F)(F)F)c(Cl)c1)C(=O)O; NPrPhe(4-CF3) = CCCN[C@@H](Cc1ccc(C(F)(F)F)cc1)C(=O)O; NEtPhe(4-CF3) = CCN[C@@H](Cc1ccc(C(F)(F)F)cc1)C(=O)O; NEtPhe(4-Me) = CCN[C@@H](Cc1ccc(C)cc1)C(=O)O; NMeGly(cPent) = CN[C@H](C(=O)O)C1CCCC1; Pro(4,4-F2) = O=C(O)[C@@H]1CC(F)(F)CN1; NMeF = CN[C@@H](Cc1ccccc1)C(=O)O; NMeD = CN[C@@H](CC(=O)O)C(=O)O; NMeL = CN[C@@H](CC(C)C)C(=O)O; NMeV = CN[C@H](C(=O)O)C(C)C; Pip = O=C(O)[C@@H]1CCCCN1; Morpholide = C1CN(*)CCO1; Ac5c = NC1(C(=O)O)CCCC1; Aze = O=C(O)[C@@H]1CCN1; Ac4c = NC1(C(=O)O)CCC1; Ac3c = NC1(C(=O)O)CC1; Sar = CNCC(=O)O

Columns and labels:
[1] = system: human lung cancer strain NCI-H441;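 note: cell proliferation inhibition after four days measured by CellTiter-Glo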
[2] = target: GDP-bound NRAS wild-type protein (Homo sapiens, UniProt P01111); test: Binding to NRAS by surface plasmon resonance (SPR), Single Cycle Kinetics; details: for NRAS/KRAS (ratio of KD value with respect to NRAS to KD value with respect to KRAS) / NRAS/KRAS (ratio of KD value for NRAS to KD value for KRAS): SPR, GDP-bound NRAS wild-type protein vs GDP-bound KRAS wild-type protein
GDP-bound NRAS wild-type protein, sequence (P01111 whole entry): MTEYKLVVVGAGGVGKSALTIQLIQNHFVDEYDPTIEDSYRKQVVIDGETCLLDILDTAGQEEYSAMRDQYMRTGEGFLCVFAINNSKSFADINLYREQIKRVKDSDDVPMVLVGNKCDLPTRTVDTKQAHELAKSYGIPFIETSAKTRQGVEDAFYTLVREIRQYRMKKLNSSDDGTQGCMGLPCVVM

[3] = target: GDP-bound HRAS wild-type protein (Homo sapiens, UniProt P01112); test: Binding to HRAS by surface plasmon resonance (SPR), Single Cycle Kinetics; details: for HRAS/KRAS (ratio of KD value with respect to HRAS to KD value with respect to KRAS) / HRAS/KRAS (ratio of KD value for HRAS to KD value for KRAS): SPR, GDP-bound HRAS wild-type protein vs GDP-bound KRAS wild-type protein
GDP-bound HRAS wild-type protein, sequence (P01112 whole entry): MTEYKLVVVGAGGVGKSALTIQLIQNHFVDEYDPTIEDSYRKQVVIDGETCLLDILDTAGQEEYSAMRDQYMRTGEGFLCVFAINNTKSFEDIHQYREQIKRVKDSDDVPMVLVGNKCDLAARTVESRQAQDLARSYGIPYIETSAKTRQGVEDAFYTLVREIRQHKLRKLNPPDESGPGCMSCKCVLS

Row | Structure (SMILES) | IC50 [1] | NRAS/KRAS (ratio of KD value with respect to NRAS to KD value with respect to KRAS) [2] | HRAS/KRAS (ratio of KD value with respect to HRAS to KD value with respect to KRAS) [3] | NRAS/KRAS (ratio of KD value for NRAS to KD value for KRAS) [2] | HRAS/KRAS (ratio of KD value for HRAS to KD value for KRAS) [3] | NRAS/KRAS (ratio of KD value with respect to GDP-bound NRAS wild-type protein to KD value with respect to KRAS) ([2]; SPR KD ratio NRAS/KRAS, class symbols) | HRAS/KRAS (ratio of KD value with respect to GDP-bound HRAS wild-type protein to KD value with respect to KRAS) ([3]; SPR KD ratio HRAS/KRAS, class symbols)
1 | CCCN1C(=O)CN(C)C(=O)[C@@H]2CCN2C(=O)[C@H]([C@@H](C)CC)NC(=O)[C@H](CC(C)C)N(C)C(=O)C[C@@H](C(=O)N(C)C)N(C)C(=O)[C@H](C2CCCC2)N(C)C(=O)C2(CCCC2)NC(=O)[C@@H]2CCCN2C(=O)[C@H](CCc2ccc(C(F)(F)F)c(Cl)c2)NC(=O)CN(C)C(=O)[C@@H]1Cc1ccc(C(F)(F)F)cc1 [PP0429] ([NMeL]I[Aze][Sar][NPrPhe(4-CF3)][Sar][hPhe(3-Cl-4-CF3)]P[Ac5c][NMeGly(cPent)][NMeD]-NMe2; lactam N-11) | 12.4 nM | B (a compound having 3 or more and less than 10 is denoted as B) | C (A compound having a KD ratio of 0.1 or more and less than 3 is denoted as C) |  |  |  | 
2 | CCCN1C(=O)[C@@H]2CCN2C(=O)[C@H](Cc2ccccc2)N(C)C(=O)[C@H]([C@@H](C)CC)NC(=O)[C@H](CC(C)C)N(C)C(=O)C[C@@H](C(=O)N2CCOCC2)N(C)C(=O)[C@H](C2CCCC2)N(C)C(=O)C2(CCCC2)NC(=O)[C@@H]2CCCN2C(=O)[C@H](CCc2ccc(C(F)(F)F)c(Cl)c2)NC(=O)CN(C)C(=O)[C@@H]1Cc1ccc(C(F)(F)F)cc1 [PP0209] ([NMeL]I[NMeF][Aze][NPrPhe(4-CF3)][Sar][hPhe(3-Cl-4-CF3)]P[Ac5c][NMeGly(cPent)][NMeD]-Morpholide; lactam N-11) | 569 nM |  |  | C (A compound having a KD ratio of 0.1 or more and less than 3 is denoted as C) | C (A compound having a KD ratio of 0.1 or more and less than 3 is denoted as C) |  | 
3 | CC[C@H](C)[C@@H]1NC(=O)[C@@H](CC(C)C)N(C)C(=O)C[C@@H](C(=O)N(C)C)N(C)C(=O)[C@@H](C2CCCC2)N(C)C(=O)C2(CCCC2)NC(=O)[C@@H]2CCCN2C(=O)[C@H](CCc2ccc(C(F)(F)F)c(Cl)c2)NC(=O)CN(C)C(=O)[C@@H](Cc2ccc(C(F)(F)F)cc2)N2CC/C=C\CCN(CC2=O)C(=O)CN(C)C1=O [PP0619] | 70.7 nM | C (A compound having a KD ratio of 0.1 or more and less than 3 is denoted as C) | C (A compound having a KD ratio of 0.1 or more and less than 3 is denoted as C) |  |  |  | 
4 | CCCN1C(=O)CN(C)C(=O)[C@@H]2CCN2C(=O)[C@H]([C@@H](C)CC)NC(=O)[C@H](CC(C)C)N(C)C(=O)C[C@@H](C(=O)N2CCOCC2)N(C)C(=O)[C@H](C2CCCC2)N(C)C(=O)C2(CCCC2)NC(=O)[C@@H]2CCN2C(=O)[C@H](CCc2ccc(C(F)(F)F)c(Cl)c2)NC(=O)CN(C)C(=O)[C@@H]1Cc1ccc(C(F)(F)F)cc1 [PP0307] ([NMeL]I[Aze][Sar][NPrPhe(4-CF3)][Sar][hPhe(3-Cl-4-CF3)][Aze][Ac5c][NMeGly(cPent)][NMeD]-Morpholide; lactam N-11) | 205 nM |  |  | B (a compound having 3 or more and less than 10 is denoted as B) | B (a compound having 3 or more and less than 10 is denoted as B) |  | 
5 | CCO[C@@H]1C[C@H]2C(=O)NC3(CCC3)C(=O)N(C)[C@@H](C3CCCC3)C(=O)N(C)[C@H](C(=O)N(C)C)CC(=O)N(C)[C@@H](CC(C)(C)C)C(=O)N[C@@H]([C@@H](C)CC)C(=O)N(C)CC(=O)N(C)[C@H]3CCCCCN(C3=O)[C@@H](Cc3ccc(C(F)(F)F)cc3)C(=O)N(C)CC(=O)N[C@@H](CCc3cc(F)c(C(F)(F)F)c(F)c3)C(=O)N2C1 [PP0669] | 20.3 nM | B (a compound having 3 or more and less than 10 is denoted as B) | B (a compound having 3 or more and less than 10 is denoted as B) |  |  |  | 
6 | CC[C@H](C)[C@@H]1NC(=O)[C@H](CC(C)C)N(C)C(=O)C[C@@H](C(=O)N2CCOCC2)N(C)C(=O)[C@H](C(C)C)N(C)C(=O)C2(CCCC2)NC(=O)[C@@H]2CCCN2C(=O)[C@H](CCc2ccc(C(F)(F)F)c(Cl)c2)NC(=O)CN(C)C(=O)[C@H](Cc2ccc(C)cc2)N(CC)C(=O)CN(C)C(=O)CN(C)C1=O [PP0044] ([NMeL]I[Sar][Sar][NEtPhe(4-Me)][Sar][hPhe(3-Cl-4-CF3)]P[Ac5c][NMeV][NMeD]-Morpholide; lactam N-11) | 142 nM |  |  | C (A compound having a KD ratio of 0.1 or more and less than 3 is denoted as C) | C (A compound having a KD ratio of 0.1 or more and less than 3 is denoted as C) |  | 
7 | CCCN1C(=O)CN(C)C(=O)[C@@H]2CCN2C(=O)[C@H]([C@@H](C)CC)NC(=O)[C@H](CC(C)C)N(C)C(=O)C[C@@H](C(=O)N2CCOCC2)N(C)C(=O)[C@H](C2CCCC2)N(C)C(=O)C2(CCC2)NC(=O)[C@@H]2CCCN2C(=O)[C@H](CCc2ccc(C(F)(F)F)c(Cl)c2)NC(=O)CN(C)C(=O)[C@@H]1Cc1ccc(C(F)(F)F)cc1 [PP0402] ([NMeL]I[Aze][Sar][NPrPhe(4-CF3)][Sar][hPhe(3-Cl-4-CF3)]P[Ac4c][NMeGly(cPent)][NMeD]-Morpholide; lactam N-11) | 58.1 nM |  |  | B (a compound having 3 or more and less than 10 is denoted as B) | C (A compound having a KD ratio of 0.1 or more and less than 3 is denoted as C) |  | 
8 | CC[C@H](C)[C@@H]1NC(=O)[C@H](CC(C)C)N(C)C(=O)C[C@@H](C(=O)N2CCOCC2)NC(=O)[C@H](C2CCCC2)N(C)C(=O)C2(CCCC2)NC(=O)[C@@H]2CCCN2C(=O)[C@H](CCc2cc(F)c(C(F)(F)F)c(F)c2)NC(=O)CN(C)C(=O)[C@H](Cc2ccc(C(F)(F)F)cc2)N2CCCC[C@@H](C2=O)N(C)C(=O)CN(C)C1=O [PP0541] | 83.3 nM | B (a compound having 3 or more and less than 10 is denoted as B) | B (a compound having 3 or more and less than 10 is denoted as B) |  |  |  | 
9 | CCC(CC)[C@H]1C(=O)N(C)[C@H](C(=O)N(C)C)CC(=O)N(C)[C@@H](COC)C(=O)N[C@@H]([C@@H](C)CC)C(=O)N(C)CC(=O)N(C)[C@H]2C/C=C\CCN(C2=O)[C@@H](Cc2ccc(C)cc2)C(=O)N(C)CC(=O)N[C@@H](CCc2ccc(Cl)c(Cl)c2)C(=O)N2CC3(CC3)C[C@H]2C(=O)N(C)C2(CC(C)(C)C2)C(=O)N1C [PP2820] | 62.4 nM |  |  |  |  | AA (a compound having 20 or more is denoted as AA) | A (a compound having 10 or more and less than 20 is denoted as A)
10 | CCCN1C(=O)CN(C)C(=O)[C@@H]2CCN2C(=O)[C@H]([C@@H](C)CC)NC(=O)[C@H](CC(C)C)N(C)C(=O)C[C@@H](C(=O)N2CCOCC2)N(C)C(=O)[C@H](C2CCCC2)N(C)C(=O)C2(CCC2)NC(=O)[C@@H]2CC(F)(F)CN2C(=O)[C@H](CCc2ccc(C(F)(F)F)c(Cl)c2)NC(=O)CN(C)C(=O)[C@@H]1Cc1ccc(C(F)(F)F)cc1 [PP0404] ([NMeL]I[Aze][Sar][NPrPhe(4-CF3)][Sar][hPhe(3-Cl-4-CF3)][Pro(4,4-F2)][Ac4c][NMeGly(cPent)][NMeD]-Morpholide; lactam N-11) | 21.7 nM |  |  | B (a compound having 3 or more and less than 10 is denoted as B) | C (A compound having a KD ratio of 0.1 or more and less than 3 is denoted as C) |  | 
11 | CCO[C@@H]1C[C@H]2C(=O)NC3(CCC3)C(=O)N(C)[C@@H](C3CCCC3)C(=O)N(C)[C@H](C(=O)N(C)C)CC(=O)N(C)[C@@H](Cc3ccccc3)C(=O)N[C@@H]([C@@H](C)CC)C(=O)N(C)CC(=O)N(C)[C@H]3CCCCCN(C3=O)[C@@H](Cc3ccc(C(F)(F)F)cc3)C(=O)N(C)CC(=O)N[C@@H](CCc3cc(F)c(C(F)(F)F)c(F)c3)C(=O)N2C1 [PP0672] | 19.7 nM | B (a compound having 3 or more and less than 10 is denoted as B) | B (a compound having 3 or more and less than 10 is denoted as B) |  |  |  | 
12 | CCCN1C(=O)[C@@H]2CCN2C(=O)[C@@H]2CCCCN2C(=O)[C@H]([C@@H](C)CC)NC(=O)[C@H](CC(C)C)N(C)C(=O)C[C@@H](C(=O)N2CCOCC2)N(C)C(=O)[C@H](C2CCCC2)N(C)C(=O)C2(CCCC2)NC(=O)[C@@H]2CCCN2C(=O)[C@H](CCc2ccc(C(F)(F)F)c(Cl)c2)NC(=O)CN(C)C(=O)[C@@H]1Cc1ccc(C(F)(F)F)cc1 [PP0077] ([NMeL]I[Pip][Aze][NPrPhe(4-CF3)][Sar][hPhe(3-Cl-4-CF3)]P[Ac5c][NMeGly(cPent)][NMeD]-Morpholide; lactam N-11) | 5.3 nM |  |  | C (A compound having a KD ratio of 0.1 or more and less than 3 is denoted as C) | B (a compound having 3 or more and less than 10 is denoted as B) |  | 
13 | CC[C@H](C)[C@@H]1NC(=O)[C@H](CC(C)C)N(C)C(=O)C[C@@H](C(=O)N2CCOCC2)N(C)C(=O)[C@H](C2CCCC2)N(C)C(=O)C2(CC2)NC(=O)[C@@H]2CCCN2C(=O)[C@H](CCc2ccc(C(F)(F)F)c(Cl)c2)NC(=O)CN(C)C(=O)[C@H](Cc2ccc(C(F)(F)F)cc2)N(CC)C(=O)CN(C)C(=O)CN(C)C1=O [PP0234] ([NMeL]I[Sar][Sar][NEtPhe(4-CF3)][Sar][hPhe(3-Cl-4-CF3)]P[Ac3c][NMeGly(cPent)][NMeD]-Morpholide; lactam N-11) | 49.9 nM |  |  | B (a compound having 3 or more and less than 10 is denoted as B) | C (A compound having a KD ratio of 0.1 or more and less than 3 is denoted as C) |  | 
